In PMC12069340 (Frontiers in Cellular and Infection Microbiology, 2025):
Structures can show the parent of a compound that is named as a salt. Where two headings read alike, the source gives them in different places.

Experiments:
[1] = test system: A/PuertoRico/8/1934 (H1N1) virus; assay: microbe, parasite or virus in culture; format: cell-based, influenza A virus
U937 cells = conditions: 20 µM
[2] = test system: A/PuertoRico/8/1934 (H1N1) virus; assay: microbe, parasite or virus in culture; format: cell-based, influenza A virus; conditions: Influenza A virus, H1N1, U-937, 48 h
in vitro = conditions: human, Relative Viability (%)
[3] = Validation screen: cytotoxicity without viral infection; conditions: human, uninfected U937 cells
[4] = Influenza A virus, H1N1, U-937, 48 h; read-out: NA Inhibition (%)
[5] = Influenza A virus, H1N1, U-937, 48 h, read-out: NA Inhibition (%)

Molecule: CN1CCc2cc3c(cc2[C@H]1[C@@H]1OC(=O)c2c1ccc1c2OCO1)OCO3 [(+)-Bicuculline]
- NA Inhibition (%) ([1]; 20 µM): -11.3%
- Relative Viability (%) (U937 cells): 98.1%

Molecule: CN(C)CCOC(c1ccc(Cl)cc1)c1ccccn1.O=C(O)/C=C\C(=O)O (stereo not drawn) [ArbinoxaMine Maleate]
- NA Inhibition (%) ([1]; 20 µM): 29.8%
- Relative Viability (%) (U937 cells): 94.3%

Molecule: CN1CCCC(n2nc(Cc3ccc(Cl)cc3)c3ccccc3c2=O)CC1 (stereo not drawn) [Azelastine HCl]
- inhibition at 20 µM [1, 4]: 55.3%
- IC50 [2]: 8.4 µM
- viability at 20 µM (in vitro): 99.4%
- CC50 at 48 h [3]: 55.7 µM

Molecule: CN1[C@@H]2CC[C@H]1C[C@@H](OC(c1ccccc1)c1ccccc1)C2 [Benztropine mesylate]
- inhibition at 20 µM [1, 5]: 57.8%
- viability at 20 µM (in vitro): 108%
- CC50 at 48 h [3]: > 80 µM

Molecule: COc1ccc(C[C@@H](C)NC[C@H](O)c2ccc(O)c(NC=O)c2)cc1.COc1ccc(C[C@@H](C)NC[C@H](O)c2ccc(O)c(NC=O)c2)cc1.O=C(O)/C=C/C(=O)O [Formoterol Hemifumarate]
- NA Inhibition (%) ([1]; 20 µM): -23.1%
- Relative Viability (%) (U937 cells): 121.9%

Molecule: CCCCCCNC(=O)Nc1ccc(S(=O)(=O)Nc2ccc(CCNC[C@H](O)COc3ccc(O)cc3)cc2)cc1 [L755507]
- NA Inhibition (%) ([1]; 20 µM): -1.1%
- Relative Viability (%) (U937 cells): 100.1%

Molecule: Cc1c(Cl)c(OCC(=O)N2CCN(C)CC2)nc2sc(C(=O)NC3CC3)c(N)c12 [LY2119620]
- NA Inhibition (%) ([1]; 20 µM): 19.0%
- Relative Viability (%) (U937 cells): 99.3%

Molecule: Cc1cccn2c(=O)c(-c3nnn[nH]3)cnc12 [Pemirolast potassium]
- inhibition at 20 µM [1, 4]: -23.7%
- viability at 20 µM (in vitro): 108%

Molecule: N#Cc1ccccc1-c1cc(-c2ccccn2)cn(-c2ccccc2)c1=O [Perampanel]
- inhibition at 20 µM [1, 4]: -30.9%
- viability at 20 µM (in vitro): 98.8%

Molecule: CC(C)COc1ccc(CNC(=O)N(Cc2ccc(F)cc2)C2CCN(C)CC2)cc1 [Pimavanserin]
- inhibition at 20 µM [1, 4]: 18.1%
- viability at 20 µM (in vitro): 113%

Molecule: CCCN[C@H]1CCc2nc(N)sc2C1 [Pramipexole dihydrochloride monohydrate]
- NA Inhibition (%) ([1]; 20 µM): 2.6
- viability at 20 µM (in vitro): 100%

Molecule: CCCN[C@H]1CCc2nc(N)sc2C1 [Pramipexole]
- NA Inhibition (%) ([1]; 20 µM): -25.0
- Relative Viability (%) (U937 cells; human): 91.8

Molecule: COc1cc2nc(N3CCN(C(=O)c4ccco4)CC3)nc(N)c2cc1OC [Prazosin HCl]
- inhibition at 20 µM [1, 4]: -45.6%
- viability at 20 µM (in vitro): 76.9%

Molecule: CN(C)C(=O)Oc1ccc[n+](C)c1 [Pyridostigmine Bromide]
- inhibition at 20 µM [1, 4]: -34.1%
- viability at 20 µM (in vitro): 88.2%

Molecule: OCCOCCN1CCN(C2=Nc3ccccc3Sc3ccccc32)CC1 [Quetiapine Fumarate]
- inhibition at 20 µM [1, 5]: -29.1%
- viability at 20 µM (in vitro): 104%

Molecule: CNC(=C[N+](=O)[O-])NCCSCc1ccc(CN(C)C)o1 [Ranitidine]
- inhibition at 20 µM [1, 4]: -11.1%
- viability at 20 µM (in vitro): 109%

Molecule: CCN(C)C(=O)Oc1cccc([C@H](C)N(C)C)c1 [Rivastigmine Tartrate]
- inhibition at 20 µM [1, 4]: -0.2%
- viability at 20 µM (in vitro): 116%

Molecule: CN(C)CCc1c[nH]c2ccc(Cn3cncn3)cc12 [Rizatriptan Benzoate]
- inhibition at 20 µM [1, 4]: 7.7%
- viability at 20 µM (in vitro): 106%

Molecule: C=CC[N+]1([C@H]2C[C@H]3[C@@H]4CC[C@H]5C[C@H](O)[C@@H](N6CCOCC6)C[C@]5(C)[C@H]4CC[C@]3(C)[C@H]2OC(C)=O)CCCC1 [Rocuronium Bromide]
- inhibition at 20 µM [1, 4]: 16.7%
- viability at 20 µM (in vitro): 106%

Molecule: COc1cc2c(cc1OC)[C@@H]1Cc3ccc(OC)c(OC)c3CN1CC2 [Rotundine]
- inhibition at 20 µM [1, 4]: 17.4%
- viability at 20 µM (in vitro): 112%

Molecule: C[C@H](Cc1cc2c(c(C(N)=O)c1)N(CCCO)CC2)NCCOc1ccccc1OCC(F)(F)F [Silodosin]
- inhibition at 20 µM [1, 5]: -41.7%
- viability at 20 µM (in vitro): 115%

Molecule: O=C(O[C@H]1CN2CCC1CC2)N1CCc2ccccc2[C@@H]1c1ccccc1 [Solifenacin succinate]
- inhibition at 20 µM [1, 4]: 22.6%
- viability at 20 µM (in vitro): 102%

Molecule: CNCC(O)c1ccc(O)cc1 (stereo not drawn) [Synephrine]
- inhibition at 20 µM [1, 5]: 12.3%
- viability at 20 µM (in vitro): 90.5%

Molecule: COc1cc2nc(N3CCN(C(=O)C4CCCO4)CC3)nc(N)c2cc1OC (stereo not drawn) [Terazosin]
- inhibition at 20 µM [1, 4]: -47.2%
- viability at 20 µM (in vitro): 87.8%

Molecule: CC(C)(C)NCC(O)c1cc(O)cc(O)c1 (stereo not drawn) [Terbutaline Sulfate]
- inhibition at 20 µM [1, 5]: 39.1%
- viability at 20 µM (in vitro): 101%

Molecule: Cc1ccsc1C(=CCCN1CCC[C@@H](C(=O)O)C1)c1sccc1C [Tiagabine hydrochloride]
- NA Inhibition (%) ([1]; 20 µM): 19.9%
- Relative Viability (%) (U937 cells; human): 91.7%

Molecule: Cc1ccsc1C(=CCCN1CCC[C@@H](C(=O)O)C1)c1sccc1C [Tiagabine]
- inhibition at 20 µM [1, 4]: 14.2%
- viability at 20 µM (in vitro): 95.7%

Molecule: CC(C)(C)NC[C@H](O)COc1nsnc1N1CCOCC1 [Timolol Maleate]
- inhibition at 20 µM [1, 5]: 33.2%
- viability at 20 µM (in vitro): 91.2%

Molecule: Clc1ccc2nsnc2c1NC1=NCCN1 [Tizanidine HCl]
- inhibition at 20 µM [1, 5]: -28.3%
- viability at 20 µM (in vitro): 78.9%

Molecule: c1ccc(CC2=NCCN2)cc1 [Tolazoline HCl]
- inhibition at 20 µM [1, 4]: 14.5%
- viability at 20 µM (in vitro): 86%

Molecule: CCC(COC(=O)c1cc(OC)c(OC)c(OC)c1)(c1ccccc1)N(C)C (stereo not drawn) [Trimebutine]
- inhibition at 20 µM [1, 5]: 43.7%
- viability at 20 µM (in vitro): 108%

Molecule: CN(C)CCN(Cc1ccccc1)c1ccccn1 [Tripelennamine HCl]
- inhibition at 20 µM [1, 4]: -0.2%
- viability at 20 µM (in vitro): 105%

Molecule: CN1[C@@H]2CC[C@H]1C[C@@H](OC(=O)c1c[nH]c3ccccc13)C2 [Tropisetron]
- inhibition at 20 µM [1, 4]: 55.4%
- viability at 20 µM (in vitro): 80.9%

Molecule: CCCC(CCC)C(=O)O [Valproic acid sodium salt]
- inhibition at 20 µM [1, 4]: -18.5%
- viability at 20 µM (in vitro): 113%

Molecule: COc1ccc(C(CN(C)C)C2(O)CCCCC2)cc1 (stereo not drawn) [Venlafaxine]
- inhibition at 20 µM [1, 4]: -1.3%
- viability at 20 µM (in vitro): 93.2%

Molecule: N#Cc1ccc2[nH]cc(CCCCN3CCN(c4ccc5oc(C(N)=O)cc5c4)CC3)c2c1 [Vilazodone HCl]
- inhibition at 20 µM [1, 4]: -49.6%
- viability at 20 µM (in vitro): 98.9%

Molecule: (+)-Matrine
- NA Inhibition (%) ([1]; 20 µM): 9.9%
- Relative Viability (%) (U937 cells): 109.9%

Molecule: Almotriptan Malate
- NA Inhibition (%) ([1]; 20 µM): 21.0%
- Relative Viability (%) (U937 cells): 114.2%

Molecule: Atipamezole hydrochloride
- NA Inhibition (%) ([1]; 20 µM): 58.1%
- Relative Viability (%) (U937 cells): 119.4%

Molecule: Bambuterol HCl
- NA Inhibition (%) ([1]; 20 µM): -2.9%
- Relative Viability (%) (U937 cells): 102.5%

Molecule: Cyclizine 2HCl
- NA Inhibition (%) ([1]; 20 µM): -4.6%
- Relative Viability (%) (U937 cells): 90.9%

Molecule: Gabapentin HCl
- NA Inhibition (%) ([1]; 20 µM): -16.1%
- Relative Viability (%) (U937 cells): 111.9%

Molecule: Galanthamine HBr
- NA Inhibition (%) ([1]; 20 µM): -13.2%
- Relative Viability (%) (U937 cells): 108.7%

Molecule: Hydroxyzine 2HCl
- NA Inhibition (%) ([1]; 20 µM): 18.4%
- Relative Viability (%) (U937 cells): 101.7%

Molecule: Itopride hydrochloride
- NA Inhibition (%) ([1]; 20 µM): 9.1%
- Relative Viability (%) (U937 cells): 109.7%

Molecule: Ivabradine HCl
- NA Inhibition (%) ([1]; 20 µM): -0.1%
- Relative Viability (%) (U937 cells): 104.6%

Molecule: Lorcaserin HCl
- NA Inhibition (%) ([1]; 20 µM): 17.8%
- Relative Viability (%) (U937 cells): 104.4%

Molecule: MetoclopraMide HCl
- NA Inhibition (%) ([1]; 20 µM): -36.9%
- Relative Viability (%) (U937 cells): 126.3%

Molecule: Naftopidil DiHCl
- NA Inhibition (%) ([1]; 20 µM): 6.2%
- Relative Viability (%) (U937 cells): 88.1%

Molecule: Naloxone HCl Dihydrate
- NA Inhibition (%) ([1]; 20 µM): 27.3%
- Relative Viability (%) (U937 cells): 113.1%

Molecule: Ondansetron HCl
- NA Inhibition (%) ([1]; 20 µM): 4.7%
- Relative Viability (%) (U937 cells): 98.5%

Molecule: PRX-08066 Maleic acid
- NA Inhibition (%) ([1]; 20 µM): 20.2%
- Relative Viability (%) (U937 cells): 92.0%

Molecule: Paroxetine HCl
- NA Inhibition (%) ([1]; 20 µM): 51.2%
- Relative Viability (%) (U937 cells): 85.1%

Molecule: Salbutamol Sulfate
- NA Inhibition (%) ([1]; 20 µM): 6.4%
- Relative Viability (%) (U937 cells): 114.7%

Molecule: Succinylcholine Chloride Dihydrate
- NA Inhibition (%) ([1]; 20 µM): 13.3%
- Relative Viability (%) (U937 cells): 99.6%

Molecule: Synephrine HCl
- NA Inhibition (%) ([1]; 20 µM): 10.3%
- Relative Viability (%) (U937 cells): 99.1%

Molecule: Tetrahydrozoline HCl
- NA Inhibition (%) ([1]; 20 µM): 9.5%
- Relative Viability (%) (U937 cells): 96.0%

Molecule: Urapidil HCl
- NA Inhibition (%) ([1]; 20 µM): 5.3%
- Relative Viability (%) (U937 cells): 103.3%

Molecule: Varenicline Tartrate
- NA Inhibition (%) ([1]; 20 µM): 6.8%
- Relative Viability (%) (U937 cells): 108.9%

Molecule: Vortioxetine (Lu AA21004) HBr
- NA Inhibition (%) ([1]; 20 µM): 23.8%
- Relative Viability (%) (U937 cells): 95.3%
